Results reported in patent US20130231305A1, “Method of Modulating Protein 14-3-3 Functionality By Facilitating or Inhibiting Phosphorylation” (Medvet Science Pty. Ltd., priority 2010, published 2013).
Where a chain is given by its changes, count along the chain named. Entries after “also recorded” stand apart in the source; their conditions may differ.

Legend:
14-3-3 isoforms = test: Phosphorylation of recombinant 14-3-3 isoforms by PKA catalytic subunit; type: biochemical; conditions: 50 μM in 0.1% ethanol
Procedure: FIG. 3 is an image depicting that sphingosine is required for the phosphorylation of multiple 14-3-3 isoforms in the third helix. (A) Primary sequence alignment of 14-3-3 isoforms in the third helix showing conservation of a Ser phosphorylation site (shown in bold). Asterisks indicate identical amino acids. (B) Recombinant 14-3-3 isoforms were incubated with PKA catalytic subunit in the presence of 50 μM sphingosine, dimethyl-sphingosine (DMS) or FTY 720 (FTY) delivered in 0.1% ethanol (EtOH). Phosphorylated 14-3-3s were detected by autoradiography. Gels were coomassie stained to show equal loading of 14-3-3 substrate.
(§1) Substrate 14-3-3 (either 0.5 μg of purified recombinant 14-3-3, a […] of fractions from gel filtration or immunoprecipitates from 14-3-3ζ-Myc transfected COS cells) were added to reaction mixture comprising 0.2 Units of the PKA catalytic subunit, in the presences or absence of sphingolipid (delivered in 0.1% v/v ethanol) in PICA reaction buffer (20 mM MOPS, pH 7.4, 20 mM β-glycerol phosphate, 4 mM EGTA, 1 mM Na3VO4, 60 mM MgCl2, 1 mM DTT, 500 μM ATP, 2.4 μCi [^32P]γ-ATP). Reactions were incubated at 37° C. for 15 minutes. After incubation, reactions were separated on 12.5% SDS-PAGE, coomassie stained and 14-3-3 phosphorylation analysed by autoradiography.

14-3-3ζ S58A mutant = target: T1, 14-3-3ζ S58A mutant (Homo sapiens, UniProt P63104, S58A); test: Phosphorylation of S58A mutant 14-3-3ζ by PKA catalytic subunit; type: biochemical; conditions: 50 μM sphingosine; alanine substitution of Ser58
T1 construct: made in house
T1 sequence (P63104 1-245 S58A): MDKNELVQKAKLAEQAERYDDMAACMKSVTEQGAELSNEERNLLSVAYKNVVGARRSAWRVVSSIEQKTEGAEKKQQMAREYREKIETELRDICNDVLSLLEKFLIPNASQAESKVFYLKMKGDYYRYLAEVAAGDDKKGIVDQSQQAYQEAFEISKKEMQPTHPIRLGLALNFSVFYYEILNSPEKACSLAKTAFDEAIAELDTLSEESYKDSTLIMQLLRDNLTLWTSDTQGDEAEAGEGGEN
Procedure: FIG. 1 is an image depicting that sphingosine is required for 14-3-3ζ phosphorylation on Ser58 by the catalytic subunit of PKA. 14-3-3ζ (wild-type or S58A mutant) was incubated with the catalytic subunit of PKA in the presence (+) or absence (−) of 50 μM sphingosine (A) or DMS (B) delivered in 0.1% ethanol. Phosphorylated 14-3-3ζ was detected by autoradiography. Gels were coomassie stained to show equal loading of 14-3-3 substrate.
as §1

[1] = published, Contreras et al. 2006; cited from earlier work
14-3-3ζ [2] = target: T2, 14-3-3ζ (Homo sapiens, UniProt P63104); test: 14-3-3 phosphorylation by PKCδCat-HA immunoprecipitates; type: biochemical; conditions: recombinant 14-3-3ζ, FIG. 5B
T2 construct: made in house
T2 sequence (P63104 1-245): T1 sequence (P63104 1-245 S58A) with A58S
Procedure: FIG. 5 is an image depicting that DMS is required for phosphorylation of 14-3-3ζ by PKCδCat but not for activation of the kinase. COS cells were transfected with either an empty expression construct (Mock) or one encoding a HA-tagged truncated form of PKCδ corresponding to the caspase-3 cleaved protein (PKCδCat-HA). 20 hours after transfection the cells were lysed and PKCδCat-HA was immunoprecipitated using an anti-HA antibody. (A) PKC assays were carried out on the immunoprecipitates from mock (open bars) and PKCδCat-HA (shaded bars) expressing cells using Ser25 peptide as substrate with [^32P]γ-ATP in the presence or absence of 100 μM DMS (delivered in 0.1% ethanol) or 10 μM of GF109203X (GFX), the PKC inhibitor. The values represent means±S.E. of triplicate determinations. (B) PKCδCat-HA immunoprecipitates were incubated with recombinant 14-3-3ζ and [^32P]γ-ATP in the presence or absence of DMS or GF109203X (GFX). Phosphorylated 14-3-3 was detected by autoradiography after separation of SDS-PAGE (upper panel). The gel was also coomassie stained to show equal loading of 14-3-3 protein (lower panel).
Equal amounts of PKCδCat-HA immunoprecipitate were used to assay for PKC kinase activity, or to phosphorylate recombinant 14-3-3. […] Following incubation, reactions were separated on 12.5% SDS-PAGE, coomassie stained and 14-3-3 phosphorylation analysed by autoradiography.

14-3-3ζ [3] = target: T2, 14-3-3ζ; test: 14-3-3 phosphorylation by PKA catalytic subunit (autoradiography); type: biochemical; conditions: 50 μM lipid delivered in 0.1% ethanol
Procedure: 14-3-3ζ (wild-type or S58A mutant) was incubated with the catalytic subunit of PKA in the presence (+) or absence (−) of 50 μM sphingosine (A) or DMS (B) delivered in 0.1% ethanol. Phosphorylated 14-3-3ζ was detected by autoradiography.
The assay was carried out by incubating 14-3-g (0.5 μg) with catalytic subunit of PKA (0.2 Units) with the indicated concentration of DMS delivered in 0.1% ethanol. Reactions were separated on SDS-PAGE and phosphorylated protein detected by autoradiography. […] (B) 14-3-3ζ was incubated with the catalytic subunit of PKA and 50 μM D-erythro-sphingosine (Sph), D-erythro-trimethyl-sphingosine (TMS), D-erythro-dihydro-sphingosine (DHS), phyto-sphingosine (PSph), D-erythro-sphingosine-1-phosphate (SIP), C2-ceramide (C2-Cer), sphingomyelin (SM), spermine (Sper) or linoleic acid (LA), all delivered in 0.1% ethanol. Phosphorylated 14-3-3ζ was detected by autoradiography.
as §1

14-3-3ζ [4] = target: T2, 14-3-3ζ; test: Gel filtration of 14-3-3ζ with DMS and [3H]-sphingosine; type: binding; conditions: co-elution in fractions 3-14; 25 μM DMS with trace [3H]-sphingosine
Procedure: FIG. 4 is a graphical representation depicting that sphingosine binds to 14-3-3 in vitro. 10 μg of recombinant 14-3-3 was incubated for 15 minutes at room temperature in 50 μl of buffer either in the absence (FIG. A, thick line) or presence of [^3H]-sphingosine (0.5 μCi) with 25 μM DMS (thin line). After incubation, the mixtures were separated by gel filtration as described under “examples”. (A) Absorbance at 280 nm was monitored continuously to identify the elution position of 14-3-3 protein. An aliquot of each eluted fraction was analysed for (B) sphingosine-binding to 14-3-3 by measuring [^3H]-sphingosine radioactivity as determined by scintillation counting; and (C) 14-3-3 phosphorylatability by incubation with 0.2 Units of PKA catalytic subunit and [^32P]γ-ATP. Phosphorylated 14-3-3 was detected by autoradiography. The chromatography and assays were repeated twice and similar results obtained.
Recombinant 14-3-3ζ (10 μg) was pre-incubated with 25 μM […] delivered in 0.1% v/v ethanol and [^3H]-sphingosine, (0.5 μCi) and then chromatographed on a SMART system with a Superdex 200PC 3.2/30 column (Amersham Biosciences, Australia). The system was operated at 40 μl/min using 20 mM Tris-HCl pH 7.5, 150 mM NaCl, 0.1 mM DTT, 10 mM β-mercaptoethanol as running buffer. Fractions (40 μl) were collected for 60 minutes after sample injection. […]

sphingosine-dependent phosphorylation of S58A 14-3-3ζ (14-3-3ζ S58A mutant): abolished | binding of [3H]-sphingosine to 14-3-3 (14-3-3ζ [4]): directly bound to 14-3-3
SMILES: CCCCCCCCCCCCC/C=C/[C@@H](O)[C@@H](N)CO [sphingosine, D-erythro-sphingosine]
phosphorylation of 14-3-3 isoforms by PKA catalytic subunit (14-3-3 isoforms): all isoforms tested with the exception of 14-3-36 were phosphorylatable | critical micelle concentration [1]: 18 µM | phosphorylation of 14-3-3 by PKCδCat (14-3-3ζ [2]): no phosphorylation is observed with PKCδCat unless sphingosine is present | phosphorylation of 14-3-3ζ on Ser58 by PKA catalytic subunit (14-3-3ζ [3]): not phosphorylated by PKA catalytic subunit unless sphingosine was present; also recorded: allowed phosphorylation
